The source of these data is US20040244713A1, “Method for treating animals or masses of water with compositions comprising quinone compounds” (priority 2003, published 2004).

One data set deals with Isochris Galbana. In words: Toxicity test LC50 on Isochris Galbana. Type of data set: cell-based.
The next data set deals with Artemia Salina. Put plainly: Toxicity test LC50 on Artemia Salina. The settings on record: in vivo.
The next data set has as its system Rainbow trout. In words: Toxicity test LC50 on fish fauna, Rainbow trout. The class given is in vivo.
Data set [1] in a line: Hydrolysis test performed in darkness. The class given is physicochemical.
Data set [2] can be described thus: Photodegradability in sunlight and UV light. The following applies: 10-ppm solution in drinking water (pH 6.5-7.5). Type of data set: physicochemical. Here is the method: In a fully similar manner, the same behaviour is confirmed if one assesses the photodegradability in sunlight and UV light (the radiation test was performed on a 10-ppm solution in drinking water (pH 6.5-7.5)

A short description of data set [3]: Biodegradability OECD 301 A (92/69/EEC C4-A). Type of data set: physicochemical. From the text: The degradability of a substance is normally a factor that is impossible to predict on a structural basis. […] On the basis of the available data related to the compounds that are chemically more similar to the derivatives of menadione described here, one could have expected a degradability comprised between the 0% (percentage calculated on the initial mass of product expressed as mg/l) of menadione (2-methyl-1,4-naphthalenedione) and the 17% (assessed after 28 days) of menadione sodium bisulfite (where the calculation was performed by using the OECD301 A guidelines annexed to EEC directive 92/69/EEC C4-A).
Finally, biodegradability according to the 92/69/EEC C4-A regulation was also assessed.

A further data set concerns Eimeria acervulina. In words: Coccid infection in chicken, Eimeria acervulina. The following applies: chickens (Ross males), 250 ppm of MPB in feed, inoculated orally with 100,000 oocysts; fecal count 16 hours before killing; n=6. The class given is in vivo. As for the experimental part: (§1) The effect of a preparation comprising menadione dimethylpirymidinol bisulfite (MPB) on coccid infection in chicken was assessed.
(§2) Composition of the preparation (per Kg of final preparation):
(§3) MPB coated with vegetable hydrogenated fatty acids (1:1 inclusion ratio) 500 g,
(§4) This preparation was added in the amount of 1 Kg per ton of feed, so that the final concentration of MPB was equal to 250 ppm of MPB (equivalent to approximately 109 ppm of menadione). Since a chicken eats on average 70-80 grams of feed per day, the daily dose of MPB was equal to approximately 17-20 mg/animal per day.
(§5) The chickens (Ross males) were raised in individual cages for four weeks with a commercial feed in comparison with the same feed integrated with said preparation at the dose of 1 Kg/ton.
(§6) At the end of the third week, the chickens were weighed and divided into uniform weight groups within each treatment and were orally inoculated (1 ml) respectively with 50,000 oocysts of Eimeria tenella or 100,000 oocysts of E. acervulina. The fecal count of the oocysts was performed (method described in Hodgson J. N. 1970, Exp. Parasitol. 28:99-102) 16 hours before killing the animals.
(§7) The coccidiostatic effect is confirmed by the score of the lesions six days after inoculation (method described by Johson J. et Al. 1970, Exp. Parasitol. 28:30-36).

Another data set relates to Eimeria tenella. In words: Coccid infection in chicken, Eimeria tenella. The settings on record: chickens (Ross males), 250 ppm of MPB in feed, inoculated orally with 50,000 oocysts; fecal count 16 hours before killing; n=6. Type of data set: in vivo. Here is the method: as §1, §2, §3, §4, §5, §6, §7
For the next data set, the system named is Eurytemora Affinis. In words: Toxicity test LC50 on Eurytemora Affinis. The following applies: in vivo.
Data set [4] concerns Dreissena Polimorfa Larvae. Put plainly: Toxicity test LC50 on Dreissena Polimorfa larvae. The following applies: in vivo.
Excerpt: (§8) The table below lists the results of the toxicity tests performed on fish fauna and on some phyto- and zooplankton species considered among the possible targets of the claimed method.

Each structure is given as a SMILES string. Marks after values point to notes of the source that are not given here.

Excerpt for Artemia Salina: as §8
Excerpt for Eurytemora Affinis: as §8
Excerpt for Isochris Galbana: as §8
Excerpt for Rainbow trout: as §8

For the compound `CC1(S(=O)(=O)O)CC(=O)c2ccccc2C1=O.Cc1cc(C)[nH]c(=O)n1` (stereo not drawn) [MPB, menadione dimethylpirymidinol bisulfite], in the data set on Isochris Galbana, the “LC50 Isochris Galbana” value came to 0.5 ppm. Further, in the data set with Artemia Salina, the “LC50 Artemia Salina” value is recorded as 5 ppm. The “LC50 Rainbow trout (assessed on 96 h)” value with Rainbow trout is recorded as 0.4 ppm. The “½ LIFE, hydrolysis” value was 48 h in data set [1] (PH 6.8, in darkness) and less than 3 h in data set [1] (PH 9, in darkness). For the same compound, the “Light exp. Total Degr.” value in data set [2] is on record as 48 h. Also, the “Light exp. ½ life” value in data set [2] came out at 10 h. Moreover, in data set [3] (7 days after the beginning of the test), the “degradability compared with that of MSB” value is “as much as eight times higher”. Further, the “% biodegr. OECD 301 A” value in [3] (after 7 days) was found to be 37%; in data set [3] (after 14 days), 37%; in [3] (after 28 days), 40%. In addition, the “Excretion of oocysts, Eimeria acervulina” value in the data set with Eimeria acervulina was 5.9 ± 0.8^a ×10^8. Further, in the data set on Eimeria tenella, the “Excretion of oocysts, Eimeria tenella” value was 0.44 ± 0.05^a ×10^8. The “LC50 Eurytemora Affinis” value with Eurytemora Affinis was determined as 5 ppm. The “LC50 Dreissena Polimorfa Larvae” value in data set [4] came out at 1 ppm.
